Measurements from the NIST ThermoML archive (doi:10.1016/j.jct.2018.03.031).
Where “and” joins values, the source holds several entries; their conditions need not be identical. Equal values may be shown once. ± gives the expanded uncertainty stated by the source.

Experiments:
[1] = Molar enthalpy of transition or fusion; details: DSC
[2] = DSC
[3] = molar heat capacity at constant pressure; details: 101.33 kPa, Large sample (1 g) DSC

CCCC[P+](CCCC)(CCCC)CCCC.FC(F)(F)C(F)(F)[P-](F)(F)(F)(C(F)(F)C(F)(F)F)C(F)(F)C(F)(F)F
Molar enthalpy of transition or fusion ([1]; Crystal 1): 7.8 ± 0.3 kJ/mol | Molar enthalpy of transition or fusion ([1]; Crystal 2): 8.9 kJ/mol and 8.7 kJ/mol | Triple point temperature ([2]; Crystal 1): 342.15 ± 1 K | Triple point temperature ([2]; Crystal 2): 313.75 ± 0.8 K and 313.15 ± 1 K | molar heat capacity at constant pressure ([3]; 283.15 K, Crystal 2): 971 ± 24 J/K/mol | molar heat capacity at constant pressure ([3]; 288.15 K, Crystal 2): 981.2 ± 24 J/K/mol | molar heat capacity at constant pressure ([3]; 293.15 K, Crystal 2): 990.3 ± 24 J/K/mol | molar heat capacity at constant pressure ([3]; 298.15 K, Crystal 2): 1003.2 ± 25 J/K/mol | molar heat capacity at constant pressure ([3]; 303.15 K, Crystal 2): 1018.4 ± 25 J/K/mol | molar heat capacity at constant pressure ([3]; 323.15 K, Crystal 1): 1029.4 ± 25 J/K/mol | molar heat capacity at constant pressure ([3]; 328.15 K, Crystal 1): 1049.8 ± 26 J/K/mol

CCn1cc[n+](C)c1.O=S(=O)([N-]S(=O)(=O)C(F)(F)F)C(F)(F)F
molar heat capacity at constant pressure ([3]; 283.15 K, Liquid): 521 ± 13 J/K/mol | molar heat capacity at constant pressure ([3]; 288.15 K, Liquid): 522.6 ± 13 J/K/mol | molar heat capacity at constant pressure ([3]; 293.15 K, Liquid): 524.2 ± 13 J/K/mol | molar heat capacity at constant pressure ([3]; 298.15 K, Liquid): 526.4 ± 13 J/K/mol | molar heat capacity at constant pressure ([3]; 303.15 K, Liquid): 528.5 ± 13 J/K/mol | molar heat capacity at constant pressure ([3]; 308.15 K, Liquid): 530.7 ± 13 J/K/mol | molar heat capacity at constant pressure ([3]; 313.15 K, Liquid): 532.5 ± 13 J/K/mol | molar heat capacity at constant pressure ([3]; 318.15 K, Liquid): 534.8 ± 13 J/K/mol | molar heat capacity at constant pressure ([3]; 323.15 K, Liquid): 536.3 ± 13 J/K/mol | molar heat capacity at constant pressure ([3]; 328.15 K, Liquid): 538.9 ± 13 J/K/mol | molar heat capacity at constant pressure ([3]; 333.15 K, Liquid): 540.2 ± 13 J/K/mol | molar heat capacity at constant pressure ([3]; 338.15 K, Liquid): 541.7 ± 13 J/K/mol

COCC[N+]1(C)CCCC1.O=S(=O)([N-]S(=O)(=O)C(F)(F)F)C(F)(F)F
molar heat capacity at constant pressure ([3]; 283.15 K, Liquid): 575.3 ± 14 J/K/mol | molar heat capacity at constant pressure ([3]; 288.15 K, Liquid): 578.9 ± 14 J/K/mol | molar heat capacity at constant pressure ([3]; 293.15 K, Liquid): 580.3 ± 14 J/K/mol | molar heat capacity at constant pressure ([3]; 298.15 K, Liquid): 582.3 ± 14 J/K/mol | molar heat capacity at constant pressure ([3]; 303.15 K, Liquid): 584.7 ± 14 J/K/mol | molar heat capacity at constant pressure ([3]; 308.15 K, Liquid): 586.5 ± 14 J/K/mol | molar heat capacity at constant pressure ([3]; 313.15 K, Liquid): 588.9 ± 14 J/K/mol | molar heat capacity at constant pressure ([3]; 318.15 K, Liquid): 591.3 ± 14 J/K/mol | molar heat capacity at constant pressure ([3]; 323.15 K, Liquid): 593.2 ± 14 J/K/mol | molar heat capacity at constant pressure ([3]; 328.15 K, Liquid): 596.3 ± 15 J/K/mol | molar heat capacity at constant pressure ([3]; 333.15 K, Liquid): 597.5 ± 15 J/K/mol | molar heat capacity at constant pressure ([3]; 338.15 K, Liquid): 602.6 ± 15 J/K/mol

CCCC[N+]1(C)CCCC1.O=S(=O)([O-])C(F)(F)F [1-butyl-1-methylpyrrolidinium trifluoromethanesulfonate]
molar heat capacity at constant pressure ([3]; 283.15 K, Liquid): 436.5 ± 11 J/K/mol | molar heat capacity at constant pressure ([3]; 288.15 K, Liquid): 438.3 ± 11 J/K/mol | molar heat capacity at constant pressure ([3]; 293.15 K, Liquid): 439.9 ± 11 J/K/mol | molar heat capacity at constant pressure ([3]; 298.15 K, Liquid): 442.7 ± 11 J/K/mol | molar heat capacity at constant pressure ([3]; 303.15 K, Liquid): 445.3 ± 11 J/K/mol | molar heat capacity at constant pressure ([3]; 308.15 K, Liquid): 447.8 ± 11 J/K/mol | molar heat capacity at constant pressure ([3]; 313.15 K, Liquid): 452.2 ± 11 J/K/mol | molar heat capacity at constant pressure ([3]; 318.15 K, Liquid): 455.3 ± 11 J/K/mol | molar heat capacity at constant pressure ([3]; 323.15 K, Liquid): 457.2 ± 11 J/K/mol | molar heat capacity at constant pressure ([3]; 328.15 K, Liquid): 460 ± 11 J/K/mol | molar heat capacity at constant pressure ([3]; 333.15 K, Liquid): 461.9 ± 11 J/K/mol | molar heat capacity at constant pressure ([3]; 338.15 K, Liquid): 464.6 ± 11 J/K/mol

CCCCn1cc[n+](C)c1C.O=S(=O)([O-])C(F)(F)F [1-butyl-2,3-dimethylimidazolium trifluoromethanesulfonate]
Molar enthalpy of transition or fusion ([1]; Crystal 1): 15 kJ/mol | Molar enthalpy of transition or fusion ([1]; Crystal 2): 5.4 kJ/mol and 7.1 kJ/mol | Triple point temperature ([2]; Crystal 1): 315.25 ± 0.8 K and 316.15 ± 1 K | Triple point temperature ([2]; Crystal 2): 307.45 ± 0.8 K and 306.15 ± 1 K | molar heat capacity at constant pressure ([3]; 283.15 K, Crystal 2): 381.1 ± 9.4 J/K/mol | molar heat capacity at constant pressure ([3]; 288.15 K, Crystal 2): 394.6 ± 9.7 J/K/mol | molar heat capacity at constant pressure ([3]; 293.15 K, Crystal 2): 407.1 ± 10 J/K/mol | molar heat capacity at constant pressure ([3]; 323.15 K, Liquid): 472.2 ± 12 J/K/mol | molar heat capacity at constant pressure ([3]; 328.15 K, Liquid): 474.3 ± 12 J/K/mol | molar heat capacity at constant pressure ([3]; 333.15 K, Liquid): 475.2 ± 12 J/K/mol | molar heat capacity at constant pressure ([3]; 338.15 K, Liquid): 478.7 ± 12 J/K/mol

CCCCCCOS(=O)(=O)[O-].CC[n+]1ccn(C)c1 [3-ethyl-1-methyl-1H-imidazolium hexyl sulfate]
molar heat capacity at constant pressure ([3]; 283.15 K, Liquid): 505.2 ± 12 J/K/mol | molar heat capacity at constant pressure ([3]; 288.15 K, Liquid): 508.3 ± 12 J/K/mol | molar heat capacity at constant pressure ([3]; 293.15 K, Liquid): 509.1 ± 12 J/K/mol | molar heat capacity at constant pressure ([3]; 298.15 K, Liquid): 513.9 ± 13 J/K/mol | molar heat capacity at constant pressure ([3]; 303.15 K, Liquid): 517.4 ± 13 J/K/mol | molar heat capacity at constant pressure ([3]; 308.15 K, Liquid): 520.2 ± 13 J/K/mol | molar heat capacity at constant pressure ([3]; 313.15 K, Liquid): 523.1 ± 13 J/K/mol | molar heat capacity at constant pressure ([3]; 318.15 K, Liquid): 526 ± 13 J/K/mol | molar heat capacity at constant pressure ([3]; 323.15 K, Liquid): 528.4 ± 13 J/K/mol | molar heat capacity at constant pressure ([3]; 328.15 K, Liquid): 531.5 ± 13 J/K/mol | molar heat capacity at constant pressure ([3]; 333.15 K, Liquid): 534 ± 13 J/K/mol | molar heat capacity at constant pressure ([3]; 338.15 K, Liquid): 537.6 ± 13 J/K/mol

CCCCO [butan-1-ol]
molar heat capacity at constant pressure ([3]; 283.15 K, Liquid): 168 ± 4.1 J/K/mol | molar heat capacity at constant pressure ([3]; 288.15 K, Liquid): 171 ± 4.2 J/K/mol | molar heat capacity at constant pressure ([3]; 293.15 K, Liquid): 174.1 ± 4.3 J/K/mol | molar heat capacity at constant pressure ([3]; 298.15 K, Liquid): 177.9 ± 4.4 J/K/mol | molar heat capacity at constant pressure ([3]; 303.15 K, Liquid): 181.1 ± 4.4 J/K/mol | molar heat capacity at constant pressure ([3]; 308.15 K, Liquid): 184.5 ± 4.5 J/K/mol | molar heat capacity at constant pressure ([3]; 313.15 K, Liquid): 187.8 ± 4.6 J/K/mol | molar heat capacity at constant pressure ([3]; 318.15 K, Liquid): 191.4 ± 4.7 J/K/mol | molar heat capacity at constant pressure ([3]; 323.15 K, Liquid): 196 ± 4.8 J/K/mol | molar heat capacity at constant pressure ([3]; 328.15 K, Liquid): 200.1 ± 4.9 J/K/mol | molar heat capacity at constant pressure ([3]; 333.15 K, Liquid): 204.1 ± 5 J/K/mol | molar heat capacity at constant pressure ([3]; 338.15 K, Liquid): 208.4 ± 5.1 J/K/mol
